The target of assay [1] is T1, human DGKζ (Homo sapiens (Human), UniProt Q13574). The assay is described as follows: DGKζ assay (detergent/lipid micelle substrate). The format is biochemical. Summed up:
(§1)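 Enzymes were baculovirus/Sf9 full-length human DGKα or DGKζ with His tag. The substrate was PS/DAG in octyl glucoside micelles, in MOPS pH 7.5 buffer with NaCl, MgCl2, CaCl2 and DTT.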

In assay [2] the target is T2, human DGKα (Homo sapiens (Human), UniProt P23743). Kind of assay: biochemical. The procedure, abridged: as §1
For assay [3], the system named is Jurkat AP1-luciferase Reporter. Kind of assay: DGK AP1-Reporter Assay. The format is cell-based. Summed up:
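Jurkat cells carrying a lentiviral AP1-luciferase reporter received 30 nl compound per well for 20 min at 37 °C and 5% CO2. They were then stimulated for 6 h with anti-CD3 solution at 0.4 μg/mL; reference wells received 4 μg/mL and unstimulated wells medium only. Readout was Steady-Glo luciferase luminescence (RLU).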

Assay [4] has as its system naïve human CD8 T cells. Kind of assay: CellTiter-Glo CD8 T Cell Proliferation Assay. The format is cell-based. The conditions noted are these: Homo sapiens, T-cell, CellTiter-Glo CD8 T cell proliferation, normalized; read-out: CD8 GLO normalized EC50. As for the experimental part: Frozen naïve human CD8 T cells were thawed in RPMI+10% FBS, incubated for 2 h in 37° C., and counted. The 384-well tissue culture plate was coated overnight at 4° C. with 20 μl anti-human CD3 at 0.1 μg/mL in plain RPMI, which was removed off the plate before 20 k/40 μl CD8 T cells with 0.5 μg/mL soluble anti-human CD28 were added to each well. The compounds were echoed to the cell plate immediately after the cells were plated. After 72 h incubation at 37° C. incubator, 10 μl CellTiter-glo reagent (Promega catalog number G7570) was added to each well. The plate was vigorously shaken for 5 mins, incubated at room temperature for another 15 mins and read on Envision for CD8 T cell proliferation. In analysis, 0.1 μg/mL anti-CD3 and 0.5 μg/mL anti-CD28 stimulated CD8 T cell signal was background.
In general terms: In ATP-based viability assays light output follows the ATP content of the culture.

Assay [5] has as its target T2, human DGKα. Kind of assay: DGKα LIPGLO assay (extruded liposome substrate). The format is biochemical. The procedure, abridged: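 Human full-length DGKα, His-tagged and produced in Sf9 cells, assayed at 20 nM (4× stock) on extruded liposomes of PS, 0.25 mM DAG and 2.75 mM PC, preincubated 10 min. Reaction started with 300 μM ATP (stock) and ran 1 h in MOPS pH 7.5/MgCl2/CaCl2/DTT buffer.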

Assay [6] deals with T1, human DGKζ. Kind of assay: DGKζ LIPGLO assay (extruded liposome substrate). The conditions noted are these: extruded liposome substrate; read-out: DGKζ LIPGLO IC50. The format is biochemical. The procedure, abridged: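 Recombinant DGKζ (Sf9-expressed, Ni/SEC/SP-purified) preincubated 10 min with extruded 100 nm PC/DAG/PS liposomes in 50 mM MOPS pH 7.5, 100 mM NaCl, 10 mM MgCl2, 1 μM CaCl2, 1 mM DTT. Started with 300 uM ATP solution (stock, pre-addition); 1 hr reaction. ADP-Glo luminescence; IC50 from 11 concentrations.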

Assay [7] has as its system OT-1 antigen-specific CD8+ T cells with MC38 tumor cells. Kind of assay: Murine Cytotoxic T Lymphocyte Assay (IFN-γ). The format is cell-based, mouse. From the text: An antigen-specific cytolytic T-cell (CTL) assay was developed to evaluate functionally the ability of DGKα and DGKζ inhibitors to enhance effector T cell mediated tumor cell killing activity. CD8+ T-cells isolated from the OT-1 transgenic mouse recognize antigen presenting cells, MC38, that present the ovalbumin derived peptide […]. Recognition of the cognate antigen initiates the cytolytic activity of the OT-1 antigen-specific CD8+ T cells.
Functional CTL cells were generated as follows: OT-1 splenocytes from 8-12 week old mice were isolated and expanded in the presence of the […] peptide at 1 μg/mL and mIL2 at 10 U/mL. After three days, fresh media with mIL2 U/mL was added. On day 5 of the expansion, the CD8+ T cells were isolated and ready for use. Activated CTL cells may be stored frozen for 6 months. […] The cells were washed (3×) with fresh media to remove excess peptide. Finally, CTL cells that were pretreated with DGK inhibitors for 1 hour in a 96-well U bottom plate were combined with the antigen loaded MC38 tumor cells at a 1:10 ratio. The cells were then spun at 700 rpm for 5 min and placed in an incubator overnight at 37° C. After 24 hours, the supernatant was collected for analysis of IFN-γ cytokine levels by AlphaLisa purchased from Perkin Elmer.

Assay [8] deals with pre-activated CD4 T cells and Raji cells. Kind of assay: Raji CD4 T Cell IL2 Assay. The format is cell-based. The conditions noted are these: Homo sapiens, Raji.
The test system of assay [9] is naïve human CD8 T cells. The assay is described as follows: cells. The conditions noted are these: Homo sapiens, T-cell, read-out: HuCD8 INFG Normalized EC50, anti-CD3 plus anti-CD28 as baseline; 3 μM Example 40 co-stimulation as 100% activation. The protocol: Frozen naïve human CD8 T cells were thawed in ATM-V media, incubated for 2 h in 37° C., and counted. The 384-well tissue culture plate was coated overnight at 4° C. with 20 μl anti-human CD3 at 0.05 μg/mL in PBS, which was removed off the plate before 40,000 cells per 40 microliters CD8 T cells with 0.1 μg/mL soluble anti-human CD28 were added to each well. The compounds were transferred using an Echo liquid handler to the cell plate immediately after the cells were plated. After 20 h incubation at 37° C. incubator, 3 microliters per well supernatants transferred into a new 384-well white assay plate for cytokine measurement.
Interferon-γ (IFN-γ) was quantitated using the AlphaLISA kit (Cat #AL217) as described by the manufacturer manual (Perkin Elmer). The counts from each well were converted to IFN-γ concentration […].

The mark [10] stands for this setting: detergent/lipid micelle substrate, read-out: DGKα IC50.
[11] abbreviates: Homo sapiens, Jurkat, read-out: API-Luciferase Reporter IC50, Table 3.
Setting [12] is: Homo sapiens, Jurkat, read-out: DGKAP1 Lucif Reporter IC50, Table 4.
[13] abbreviates: detergent/lipid micelle substrate, read-out: DGKζ IC50.
The mark [14] stands for this setting: DGKα IC50, detergent/lipid micelle substrate.
Where [15] appears, read: read-out: API-Luciferase Reporter IC50, Table 3.
Where [16] appears, read: read-out: msCTL INF-γ IC50, murine CTL IFN-γ (table title reads INF-γ Whole Blood Normalized Agonist EC50).
The mark [17] stands for this setting: Mus musculus, MC-38, read-out: msCTL INF-γ IC50, murine CTL IFN-γ (table title reads INF-γ Whole Blood Normalized Agonist EC50).

Where two headings read alike, the source gives them in different places. A value given as a limit tells only on which side of the number the result lay.

One may read the IC50 as the midpoint of a concentration-inhibition curve. As usually defined, the EC50 is the concentration needed to bring the measured effect to its halfway point.

T1 sequence (Q13574 other isoform, or with tags, fused parts or gaps): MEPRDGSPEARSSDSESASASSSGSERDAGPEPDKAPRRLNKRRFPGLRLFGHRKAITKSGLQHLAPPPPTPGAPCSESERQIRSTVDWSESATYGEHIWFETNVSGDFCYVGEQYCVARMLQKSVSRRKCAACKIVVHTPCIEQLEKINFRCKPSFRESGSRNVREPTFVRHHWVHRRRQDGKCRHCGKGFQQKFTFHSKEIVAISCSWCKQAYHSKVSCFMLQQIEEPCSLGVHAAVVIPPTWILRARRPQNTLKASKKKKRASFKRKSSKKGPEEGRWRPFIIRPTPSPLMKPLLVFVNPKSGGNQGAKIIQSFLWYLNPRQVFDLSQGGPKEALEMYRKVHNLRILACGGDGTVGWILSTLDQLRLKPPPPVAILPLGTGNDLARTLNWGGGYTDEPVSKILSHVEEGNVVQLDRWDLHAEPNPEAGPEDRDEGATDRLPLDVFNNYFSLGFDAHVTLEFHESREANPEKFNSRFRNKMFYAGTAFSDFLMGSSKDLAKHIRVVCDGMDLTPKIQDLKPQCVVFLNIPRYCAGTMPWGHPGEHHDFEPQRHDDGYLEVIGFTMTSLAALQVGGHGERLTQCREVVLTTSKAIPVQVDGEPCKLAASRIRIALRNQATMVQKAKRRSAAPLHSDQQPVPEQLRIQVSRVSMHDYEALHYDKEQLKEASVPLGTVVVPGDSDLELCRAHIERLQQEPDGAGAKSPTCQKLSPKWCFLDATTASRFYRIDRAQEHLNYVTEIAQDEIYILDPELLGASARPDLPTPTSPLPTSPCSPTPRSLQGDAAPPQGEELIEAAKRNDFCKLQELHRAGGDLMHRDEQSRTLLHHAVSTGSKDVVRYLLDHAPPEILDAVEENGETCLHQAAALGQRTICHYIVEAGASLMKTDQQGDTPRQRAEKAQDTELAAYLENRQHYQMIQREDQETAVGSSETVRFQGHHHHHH
T2 sequence (P23743 other isoform, or with tags, fused parts or gaps): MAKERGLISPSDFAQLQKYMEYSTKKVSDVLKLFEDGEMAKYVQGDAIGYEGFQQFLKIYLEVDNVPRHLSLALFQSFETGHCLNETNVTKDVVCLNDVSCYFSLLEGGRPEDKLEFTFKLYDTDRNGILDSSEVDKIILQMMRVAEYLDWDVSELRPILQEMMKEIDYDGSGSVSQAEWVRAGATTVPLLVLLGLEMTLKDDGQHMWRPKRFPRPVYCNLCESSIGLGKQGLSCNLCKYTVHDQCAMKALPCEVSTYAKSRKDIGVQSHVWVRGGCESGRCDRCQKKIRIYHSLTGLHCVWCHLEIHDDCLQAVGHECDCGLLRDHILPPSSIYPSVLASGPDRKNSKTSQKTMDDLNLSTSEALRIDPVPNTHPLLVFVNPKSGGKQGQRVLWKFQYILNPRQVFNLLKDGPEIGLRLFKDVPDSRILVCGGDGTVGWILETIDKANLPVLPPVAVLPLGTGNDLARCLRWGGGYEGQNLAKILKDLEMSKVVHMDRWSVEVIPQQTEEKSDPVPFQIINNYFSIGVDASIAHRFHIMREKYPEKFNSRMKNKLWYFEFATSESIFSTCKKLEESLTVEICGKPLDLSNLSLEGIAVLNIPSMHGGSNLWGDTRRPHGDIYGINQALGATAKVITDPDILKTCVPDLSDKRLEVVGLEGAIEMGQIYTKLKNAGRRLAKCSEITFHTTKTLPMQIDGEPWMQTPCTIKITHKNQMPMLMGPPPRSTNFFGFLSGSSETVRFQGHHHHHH

In the case of `CC(c1ccc(F)cc1)N1CCN(c2c(C#N)c(=O)n(CC3CC3)c3ccc(Br)nc23)CC1` (racemic) [Example 162, 6-bromo-1-(cyclopropylmethyl)-4-(4-(1-(4-fluorophenyl)ethyl)piperazin-1-yl)-2-oxo-1,2-dihydro-1,5-naphthyridine-3-carbonitrile], the IC50 against human DGKζ [1] (DGKζ IC50, detergent/lipid micelle substrate) was > 240000 nM; on human DGKα [2] (setting [10]), 160000 nM; in assay [3] (setting [11]), 4810 nM; in assay [3] (setting [12]), 10000 nM. Also, the EC50 in the assay with naïve human CD8 T cells [4] worked out at 10000 nM.

With `C#CCn1c(=O)c([N+](=O)[O-])c(N2CCN(C(c3ccc(F)cc3)c3ccccc3OC)CC2)c2nc(C#N)ccc21` (racemic) [Example 129, 8-(4-((4-fluorophenyl)(2-methoxyphenyl)methyl)piperazin-1-yl)-7-nitro-6-oxo-5-(prop-2-yn-1-yl)-5,6-dihydro-1,5-naphthyridine-2-carbonitrile], the results for the IC50 (at human DGKζ [1] (setting [13]); on human DGKα [2] (setting [10]); in assay [3] (setting [12])) were 180 nM, 4200 nM and 870 nM, respectively. The EC50 with naïve human CD8 T cells [4] turned out to be 60 nM.

Turning to `Cn1c(=O)c([N+](=O)[O-])c(N2CCN(C(c3ccc(F)cc3)C3CC3)CC2)c2nc(C#N)ccc21` (racemic) [Example 49, 8-(4-(cyclopropyl(4-fluorophenyl)methyl)piperazin-1-yl)-5-methyl-7-nitro-6-oxo-5,6-dihydro-1,5-naphthyridine-2-carbonitrile], the IC50 is > 240000 nM at human DGKζ [1] (setting [13]), 180 nM at human DGKα [2] (setting [14]) and 1700 nM in assay [3] (setting [12]). Besides, in the assay on naïve human CD8 T cells [4], the 50% effective concentration (EC50) stood at 170 nM.

As to `COc1cc(F)ccc1C(c1ccc(F)cc1)N1CCN(c2c(C#N)c(=O)n(C)c3ccc(C#N)nc23)CC1` (racemic) [Example 405, 8-{4-[(4-fluoro-2-methoxyphenyl)(4-fluorophenyl)methyl]piperazin-1-yl}-5-methy-6-oxo-5,6-dihydro-L5-naphthyridine-2,7-dicarbonitrile], the values for the IC50 against human DGKα [5] and at human DGKζ [6] were 560 nM and 860 nM, respectively. In addition, in the assay with naïve human CD8 T cells [4], the EC50 is 20 nM.

Regarding `C#CCn1c(=O)c([N+](=O)[O-])c(N2CCN(C(c3ccc(F)cc3)c3ccccc3O)CC2)c2nc(C#N)ccc21` (single isomer, unassigned) [Example 133, 8-(4-((4-fluorophenyl)(2-hydroxyphenyl)methyl)piperazin-1-yl)-7-nitro-6-oxo-5-(prop-2-yn-1-yl)-5,6-dihydro-1,5-naphthyridine-2-carbonitrile], the IC50 came out at 140 nM on human DGKζ [1] (setting [13]), 3300 nM against human DGKα [2] (setting [14]), 280 nM in [3] (setting [15]) and 60 nM in [7] (setting [16]).

`CC(c1ccc(F)cc1)N1CCN(c2c(C#N)c(=O)n(C)c3ccc(Cl)nc23)CC1` (centres unmarked) [Example 387A, 6-chloro-4-{4-[1-(4-fluorophenyl)ethyl]piperazin-1-yl}-1-methyl-2-oxo-1,2-dihydro-1,5-naphthyridine-3-carbonitrile]: the IC50 in [3] (setting [12]) is 10000 nM. Besides, in the assay on naïve human CD8 T cells [4], the EC50 was found to be 10000 nM.

With `C#CCn1c(=O)c([N+](=O)[O-])c(N2CCN(C(c3ccc(F)cc3)c3ccccc3O)CC2)c2nc(C#N)ccc21` (single isomer, unassigned) [Example 134, 8-(4-((4-fluorophenyl)(2-hydroxyphenyl)methyl)piperazin-1-yl)-7-nitro-6-oxo-5-(prop-2-yn-1-yl)-5,6-dihydro-1,5-naphthyridine-2-carbonitrile], the concentration for half-maximal inhibition (IC50) on human DGKζ [1] (setting [13]) worked out at 4200 nM; at human DGKα [2] (setting [10]), 31000 nM; in assay [3] (setting [15]), 600 nM; in assay [7] (setting [16]) it was 1140 nM.

Turning to `Cn1c(=O)c(C#N)c(N2CCN(Cc3ccc(O)cc3)CC2)c2nc(Cl)ccc21` [Example 362, 6-chloro-4-{4-[(4-hydroxyphenyl)methyl]piperazin-1-yl}-1-methyl-2-oxo-1,2-dihydro-1,5-naphthyridine-3-carbonitrile], the IC50 at human DGKζ [1] (setting [13]) was > 240000 nM; on human DGKα [2] (setting [10]) it was 69 nM; in assay [8], > 100000 nM; in assay [3] (setting [11]), 8370 nM; in assay [7] (setting [17]) it was 10000 nM.

Turning to `Cn1c(=O)c(C#N)c(N2CCN([C@@H](c3ccccc3)c3ccc(Cl)cc3)CC2)c2nc(Br)ccc21` [Example 428, 6-bromo-4-{4-[(S)-(4-chlorophenyl)(phenyl)methyl]piperazin-1-yl}-1-methyl-2-oxo-1,2-dihydro-1,5-naphthyridine-3-carbonitrile], the EC50 with naïve human CD8 T cells [9] turned out to be 30 nM. Moreover, the values for the IC50 (against human DGKα [5]; at human DGKζ [6]; in assay [7] (setting [17])) were 10000 nM, 5200 nM and 590 nM, respectively.

Regarding `COc1cc(F)ccc1C(c1ccc(F)cc1)N1CCN(c2cc(=O)n(C)c3ccc(C#N)nc23)CC1` (centres unmarked) [Example 392, 8-{4-[(4-fluoro-2-methoxyphenyl)(4-fluorophenyl)methyl]piperazin-1-yl}-5-methyl-6-oxo-5,6-dihydro-1,5-naphthyridine-2-carbonitrile], in the assay with naïve human CD8 T cells [9], the EC50 came out at 230 nM. Besides, the IC50 on human DGKα [5] is > 240000 nM; on human DGKζ [6], 2300 nM; in assay [7] (setting [17]), 1850 nM.

In the case of `Cn1c(=O)c([N+](=O)[O-])c(N2CCN([C@@H](c3ccccc3)c3ccc(Cl)cc3)CC2)c2nc(C#N)ccc21` [Example 399, 8-{4-[(S)-(4-chlorophenyl)(phenyl)methyl]piperazin-1-yl}-5-methyl-7-nitro-6-oxo-5,6-dihydro-1,5-naphthyridine-2-carbonitrile], the EC50 with naïve human CD8 T cells [9] is 20 nM. Besides, the 50% inhibitory concentration (IC50) came to 6400 nM on human DGKα [5], 160 nM on human DGKζ [6] and 410 nM in assay [7] (setting [17]).

Take `Cc1cccc(CN2CCN(c3c(C#N)c(=O)n(C)c4ccc(Cl)nc34)CC2)c1` [Example 385, 6-chloro-1-methyl-1-{4-4[(3-methylphenyl)methyl]piperazin-1-yl}-2-oxo-1,2-dihydro-1,5-naphthyridine-3-carbonitrile]: the IC50 on human DGKζ [1] (setting [13]) is 150000 nM; at human DGKα [2] (setting [10]) it was 350 nM; in assay [3] (setting [11]), 60 nM; in assay [7] (setting [17]), 4090 nM.

These data come from US11866430B2, “Naphthyridinone compounds useful as T cell activators” (priority 2018, dated 2024).
